Assay results: US7629340B2, “N-(6-membered aromatic ring)-amido anti-viral compounds” (SmithKline Beecham Corporation, priority 2005, dated 2009)

test: Replicon Assay (luciferase, ET cell line); format: cell-based, HCV; details: Hepatitis C virus; % inhibition of replication relative to no compound control, test concentration of 10 μM; ET cells, luciferase read 48-72 hours; read-out: % inhib at 10 uM
Experimental: A cell line, ET (Huh-lucubineo-ET) was used for screening of compounds of the present invention for HCV RNA dependent RNA polymerase. The ET cell line was stably transfected with RNA transcripts harboring a I389luc-ubi-neo/NS3-3′/ET; replicon with firefly luciferase-ubiquitin-neomycin phosphotransferase fusion protein and EMCV-IRES driven NS3-5B polyprotein containing the cell culture adaptive mutations (E1202G; T1280I; K1846T) (Krieger at al, 2001 and unpublished). The ET cells were grown in DMEM, supplemented with 10% fetal calf serum, 2 mM Glutamine, Penicillin (100 IU/mL)/Stretomycin (100 μg/mL), 1× nonessential amino acids, and 250 μg/mL G418 (“Geneticin”). They were all available through Life Technologies (Bethesda, Md.). The cells were plated at 0.5−1.0×10^4 cells/well in the 96 well plates and incubated for 24 hrs before adding nucleoside analogs. […] Luciferase activity were measured 48-72 hours later by adding a lysis buffer and the substrate (Catalog number Glo-lysis buffer E2661 and Bright-Glo luciferase system E2620 Promega, Madison, Wis.). Cells should not be too confluent during the assay. Percent inhibition of replication was plotted relative to no compound control. Under the same condition, cytotoxicity of the compounds was determined using cell proliferation reagent, WST-1 (Roche, Germany). The compounds showing antiviral activities, but no significant cytotoxicities were chosen to determine IC50 and TC50. For these determinations, 10 concentration of each compound were used. Concentrations for test compounds typically span a range of 500 fold. IC50 and TC50 values were calculated by fitting % inhibition at each concentration (I) to the following equation: % inhibition=100%/[1+10^(log IC50−log(I))*b] where b is Hill's coefficient.

Going from `COc1cccc(-c2cccc(NC(=O)[C@@H]3CCCN3C(=O)OCc3ccccc3)c2)c1OC` [Compound 6026, 2-(2′,3′-Dimethoxybiphenyl-3-yl-carbamoyl)-pyrrolidine-1-carboxylic acid benzyl ester] to `COc1cccc(-c2ccc(NC(=O)[C@@H]3CCCN3C(=O)OCc3ccccc3)cc2)c1OC` [Compound 6028, 2-(2′,3′-Dimethoxy-biphenyl-4-ylcarbamoyl)-pyrrolidine-1-carboxylic acid benzyl ester], the inhibition at 10 µM falls from 98.7% to 75%.

Compared with `COc1ccc(-c2cccc(NC(=O)[C@@H]3CCCN3C(=O)OCc3ccccc3)c2)cc1OC` [Compound 6029, 2-(3′,4′-Dimethoxybiphenyl-3-yl-carbamoyl)-pyrrolidine-1-carboxylic acid benzyl ester], `COc1ccc(-c2cccc(NC(=O)[C@@H]3CCCN3C(=O)OCc3ccccc3)c2)cc1` [Compound 6037, 2-(4′-Methoxybiphenyl-3-yl-carbamoyl)-pyrrolidine-1-carboxylic acid benzyl ester] is higher in inhibition at 10 µM: 3.08% for the first, 8.6% for the second.

First: COc1ccc2nc(NC(=O)c3ccc(NC(=O)[C@@H]4CCCN4C(=O)OCc4ccccc4)cc3)sc2c1 [Compound 6030, 2-[4-(6-Methoxy-benzothiazol-2-ylcarbamoyl)-phenylcarbamoyl]-pyrrolidine-1-carboxylic acid benzyl ester]
Second: CC(=O)Nc1ccc(-c2cccc(NC(=O)[C@@H]3CCCN3C(=O)OCc3ccccc3)c2)cc1 [Compound 6056, 2-(4′-Acetylamino-biphenyl-3-ylcarbamoyl)-pyrrolidine-1-carboxylic acid benzyl ester]
The inhibition at 10 µM of the first is lower: 42.2% for the first, 80.8% for the second.

Compared with `COc1ccccc1-c1cccc(NC(=O)[C@@H]2CCCN2C(=O)OCc2ccccc2)c1` [Compound 6031, 2-(2′-Methoxybiphenyl-3-yl-carbamoyl)-pyrrolidine-1-carboxylic acid benzyl ester], `Cc1c(N)cccc1-c1cccc(NC(=O)[C@@H]2CCCN2C(=O)OCc2ccccc2)c1` [Compound 6090, 2-(3′-Amino-2′-methyl-biphenyl-3-ylcarbamoyl)-pyrrolidine-1-carboxylic acid benzyl ester] is higher in inhibition at 10 µM: 28.6% for the first, 59.6% for the second.

First: O=C(Nc1cc(Oc2ccc3oc4c(c3c2)CCCC4)cc([N+](=O)[O-])c1)[C@@H]1CCCN1C(=O)OCc1ccccc1 [Compound 6032, 2-[3-Nitro-5-(6,7,8,9-tetrahydro-dibenzofuran-2-yloxy)-phenylcarbamoyl]-pyrrolidine-1-carboxylic acid benzyl ester]
Second: O=C(Nc1cccc(-c2ccc([N+](=O)[O-])cc2)c1)[C@@H]1CCCN1C(=O)OCc1ccccc1 [Compound 6053, 2-(4′-Nitro-biphenyl-3-ylcarbamoyl)-pyrrolidine-1-carboxylic acid benzyl ester]
The inhibition at 10 µM of the first is lower: 44.5% for the first, 93.3% for the second.

Compared with `O=C(Nc1cccc(Oc2ccccc2)c1)[C@@H]1CCCN1C(=O)OCc1ccccc1` [Compound 6034, 2-(3-Phenoxy-phenylcarbamoyl)-pyrrolidine-1-carboxylic acid benzyl ester], `O=C(Nc1ccc(-c2ccccc2)cc1)[C@@H]1CCCN1C(=O)OCc1ccccc1` [Compound 6035, 2-(Biphenyl-4-ylcarbamoyl)-pyrrolidine-1-carboxylic acid benzyl ester] is higher in inhibition at 10 µM: 26.7% for the first, 42.5% for the second.

First: COc1cccc(OC)c1-c1ccc(NC(=O)[C@@H]2CCCN2C(=O)OCc2ccccc2)cc1 [Compound 6036, 2-(2′,6′-Dimethoxy-biphenyl-4-ylcarbamoyl)-pyrrolidine-1-carboxylic acid benzyl ester]
Second: CN(C)c1ccc(-c2cccc(NC(=O)[C@@H]3CCCN3C(=O)OCc3ccccc3)c2)cc1 [Compound 6045, 2-(4′-Dimethylamino-biphenyl-3-ylcarbamoyl)-pyrrolidine-1-carboxylic acid benzyl ester]
The inhibition at 10 µM of the first is higher: 22.9% for the first, 15.7% for the second.

Going from `O=C(Nc1cccc(-c2ccc3c(c2)OCO3)c1)[C@@H]1CCCN1C(=O)OCc1ccccc1` [Compound 6043, 2-(3-Benzo[1,3]dioxol-5-yl-phenylcarbamoyl)-pyrrolidine-1-carboxylic acid benzyl ester] to `Nc1cccc(-c2cccc(NC(=O)[C@@H]3CCCN3C(=O)OCc3ccccc3)c2)c1` [Compound 6054, 2-(3′-Amino-biphenyl-3-ylcarbamoyl)-pyrrolidine-1-carboxylic acid benzyl ester], the inhibition at 10 µM rises from 93.9% to 97.7%.

Compared with `O=C(Nc1cccc(-c2ccc3ccccc3c2)c1)[C@@H]1CCCN1C(=O)OCc1ccccc1` [Compound 6044, 2-(3-Naphthalen-2-yl-phenylcarbamoyl)-pyrrolidine-1-carboxylic acid benzyl ester], `O=C(Nc1cccc(-c2ccc3cc(O)ccc3c2)c1)[C@@H]1CCCN1C(=O)OCc1ccccc1` [Compound 6088, 2-[3-(6-Hydroxy-naphthalen-2-yl)-phenylcarbamoyl]-pyrrolidine-1-carboxylic acid benzyl ester] is higher in inhibition at 10 µM: 73.2% for the first, 99.9% for the second.

Going from `O=C(Nc1cccc(Br)c1)[C@@H]1CCCN1C(=O)OCc1ccccc1` [Compound 6047, 2-(3-Bromo-phenylcarbamoyl)-pyrrolidine-1-carboxylic acid benzyl ester] to `Nc1ccc(-c2cccc(NC(=O)[C@@H]3CCCN3C(=O)OCc3ccccc3)c2)cc1` [Compound 6086, 2-(4′-Amino-biphenyl-3-ylcarbamoyl)-pyrrolidine-1-carboxylic acid benzyl ester], the inhibition at 10 µM rises from 1.38% to 89.9%.

Compared with `CC(=O)c1ccc(-c2cccc(NC(=O)[C@@H]3CCCN3C(=O)OCc3ccccc3)c2)s1` [Compound 6048, 2-[3-(5-Acetyl-thiophen-2-yl)-phenylcarbamoyl]-pyrrolidine-1-carboxylic acid benzyl ester], `CC(=O)c1ccc(-c2cccc(NC(=O)[C@@H]3CCCN3C(=O)OCc3ccccc3)c2)cc1` [Compound 6052, 2-(4′-Acetyl-biphenyl-3-ylcarbamoyl)-pyrrolidine-1-carboxylic acid benzyl ester] is higher in inhibition at 10 µM: 36.9% for the first, 48.3% for the second.

First: Cn1ccc2cc(-c3cccc(NC(=O)[C@@H]4CCCN4C(=O)OCc4ccccc4)c3)ccc21 [Compound 6051, 2-[3-(1-Methyl-1H-indol-5-yl)-phenylcarbamoyl]-pyrrolidine-1-carboxylic acid benzyl ester]
Second: Cc1ccc2cc(-c3cccc(NC(=O)[C@@H]4CCCN4C(=O)OCc4ccccc4)c3)ccc2n1 [Compound 6085, 2-[3-(2-Methyl-quinolin-6-yl)-phenylcarbamoyl]-pyrrolidine-1-carboxylic acid benzyl ester]
The inhibition at 10 µM of the first is higher: 68.8% for the first, 39.7% for the second.

First: O=C(O)/C=C/c1ccc(-c2cccc(NC(=O)[C@@H]3CCCN3C(=O)OCc3ccccc3)c2)cc1 [Compound 6055, 2-[4′-(2-Carboxy-vinyl)-biphenyl-3-ylcarbamoyl]-pyrrolidine-1-carboxylic acid benzyl ester]
Second: CC(=O)c1cccc(-c2cccc(NC(=O)[C@@H]3CCCN3C(=O)OCc3ccccc3)c2)c1 [Compound 6087, 2-(3′-Acetyl-biphenyl-3-ylcarbamoyl)-pyrrolidine-1-carboxylic acid benzyl ester]
The inhibition at 10 µM of the first is lower: 40.9% for the first, 78.9% for the second.

Compared with `CC(=O)Nc1cccc(-c2cccc(NC(=O)[C@@H]3CCCN3C(=O)OCc3ccccc3)c2)c1` [Compound 6057, 2-(3′-Acetylamino-biphenyl-3-ylcarbamoyl)-pyrrolidine-1-carboxylic acid benzyl ester], `CNc1cccc(-c2cccc(NC(=O)[C@@H]3CCCN3C(=O)OCc3ccccc3)c2)c1` [Compound 6089, 2-(3′-Methylamino-biphenyl-3-ylcarbamoyl)-pyrrolidine-1-carboxylic acid benzyl ester] is higher in inhibition at 10 µM: 61.7% for the first, 76.4% for the second.

Going from `O=C(Nc1cccc(-c2cccc3[nH]ccc23)c1)[C@@H]1CCCN1C(=O)OCc1ccccc1` [Compound 6082, 2-[3-(1H-Indol-4-yl)-phenylcarbamoyl]-pyrrolidine-1-carboxylic acid benzyl ester] to `O=C1Nc2ccc(-c3cccc(NC(=O)[C@@H]4CCCN4C(=O)OCc4ccccc4)c3)cc2C1=O` [Compound 6084, 2-[3-(2,3-Dioxo-2,3-dihydro-1H-indol-5-yl)-phenylcarbamoyl]-pyrrolidine-1-carboxylic acid benzyl ester], the inhibition at 10 µM falls from 97.4% to 3.35%.

Compared with `O=C1Cc2cc(-c3cccc(NC(=O)[C@@H]4CCCN4C(=O)OCc4ccccc4)c3)ccc2N1` [Compound 6083, 2-[3-(2-Oxo-2,3-dihydro-1H-indol-5-yl)-phenylcarbamoyl]-pyrrolidine-1-carboxylic acid benzyl ester], `Cc1nc2cc(-c3cccc(NC(=O)[C@@H]4CCCN4C(=O)OCc4ccccc4)c3)ccc2s1` [Compound 6091, 2-[3-(2-Methyl-benzothiazol-5-yl)-phenylcarbamoyl]-pyrrolidine-1-carboxylic acid benzyl ester] is higher in inhibition at 10 µM: 93.8% for the first, 97.7% for the second.
